{"source": "patent US6649605B2", "about": "“Treatment of tension-type headaches with NMDA receptor antagonists” (Head Explorer A/S, priority 1996, dated 2003)", "key": {"[1]": {"test_system": "patients with chronic tension-type headache", "test": "Double-blind crossover i.v. L-NMMA vs placebo: headache intensity on VAS and VRS", "format": "in vivo, human", "description": "Sixteen patients With a diagnosis of chronic tension-type headache according to the criteria of the International Headache Society, (headache Classification Committee 1988) were recruited from the out-patient headache clinic at Glostrup Hospital. There were 12 women and 4 men with a mean age (range) of 38.5 (23-52) years. Five patients with coexisting infrequent migraine (£ one day/month) were accepted. All patients completed a diagnostic headache diary during a 4-week run-in period (Russell et al. 1992). At screening, a full physical and neurological examination, including 12-lead ECG were carried out. Blood samples for routine haematological and biochemical testing, and urine sample for urine analysis were taken. The patients were not allowed to take analgesics 12 hours prior to the treatment. Exclusion criteria were: daily medication (including prophylactic headache therapy but not oral contraceptives); pregnant or breast feeding women; abuse of analgesics (corresponding to>2 gm of aspirin/day) or alcohol, serious somatic or psychiatric diseases including depression (Hamilton Depression Score ^317 (Hamilton 1960)); ischemic heart disease; a supine diastolic blood pressure >90 mmHg or heart rate <50 beats per minute at study entry. All patients gave written informed consent to participate in the study, which was approved by The local ethics committee and conducted in accordance with the Declaration of Helsinki.\n(§1) Randomization (Med.Stat) and drug preparation were performed by staff not involved in the study. The medication was given over 15 minutes into an antecubital vein (Braun Perfusor). The following parameters were measured at baseline and […] post administration: headache intensity on a 100-mm Visual Analog Scale (VAS) (0-no headache and 100-worst imaginable headache) and on a Verbal Rating Scale (VRS) from 0-10 (0-no headache; 5-moderate headache; 10-worst imaginable headache). Blood pressure and pulse rate were measured 5 minutes prior to administration of treatment and at 5, 10, 15, 20, 25, 30, 60, 90 and 120 minutes post administration. Twelve-lead ECG was monitored continuously. Any adverse events were recorded. Patient with unrelieved headache at 120 minutes post treatment were allowed to take rescue medication. All patients were asked to record details of the following on a diary card at 4, 8, 12, 16, 20 and 24 hours post administration, headache intensity on VRS, any medication taken and adverse events. Between 4-7 days after each treatment, the patients returned to the clinic, the diary cards were collected and any adverse events were noted.\n(§2) Primary endpoint was the reduction of pain intensity over time on active treatment compared to placebo. The secondary endpoints were reduction of pain intensity at 30, 60, 90 and 120 minutes post dosing on VAS and VRS compared to pre-treatment pain score within each treatment. Comparison of pain intensity on VAS, blood pressure and pulse rate over time between treatments were performed With ANOVA. Paired-Samples T Test was used to compare pre-treatment pain score on VAS with pain score at 30, 60, 90, 120 minutes post dosing within each treatment. The sum of differences between the pre-treatment VRS score and the VRS score at 30, 60, 90, 120 minutes post dosing was calculated in order to obtained a summary measure of pain score for each treatment (Matthews et al. 1990). These sums of differences for each treatment were compared by Wilcoxon Signed Rank test. Five percent was accepted as level of significance.\nThe recordings were performed in a standardized manner by the same observer, a trained technician (HA), throughout the study. All parameters were recorded at baseline, 60 and 120 minutes after start of infusion. The trial was designed as a double blind, placebo controlled, crossover study. […] The patients were not allowed to take analgesics 12 hours prior to the examination. […]"}, "[2]": {"test_system": "patients with chronic tension-type headache", "test": "Blood pressure, pulse rate, adverse events and rescue medication after L-NMMA infusion", "format": "in vivo, human", "protocol": "as §1, §2"}}, "note": "Several values for one entry are separate records, joined by “and”; a condition that tells them apart may be missing. Equal values may be shown once. Entries after “also recorded” stand apart in the source; their conditions may differ.", "data": [{"smiles": "CN=C(N)NCCC[C@H](N)C(=O)O.Cl", "note": "[L-NMMA, L-N^G methyl arginine hydrochloride]", "values": [{"measurement": "Pain intensity (VAS) over time compared with placebo", "setting": "[1]; 6 mg/kg i.v., 16 patients, ANOVA, hydrochloride", "result": "reduced pain intensity (VAS) over time significantly more than placebo; also recorded: effective in the treatment of patients with chronic tension-type headache; also recorded: significantly reduced"}, {"measurement": "Pain score compared with pre-treatment value within treatment", "setting": "[1]; 6 mg/kg i.v., post treatment time points, hydrochloride", "result": "significantly reduced after 30, 60, 90 and 120 minutes; also recorded: significantly reduced at each time point"}, {"measurement": "Pain score on VAS, 30 minutes", "setting": "[1]; 30 minutes post dosing, 100-mm VAS, 6 mg/kg i.v., mean (SD)", "result": "38 ± 18"}, {"measurement": "Pain score on VAS, 60 minutes", "setting": "[1]; 60 minutes post dosing, 100-mm VAS, 6 mg/kg i.v., mean (SD)", "result": "35 ± 18"}, {"measurement": "Pain score on VAS, 90 minutes", "setting": "[1]; 90 minutes post dosing, 100-mm VAS, 6 mg/kg i.v., mean (SD)", "result": "34 ± 21"}, {"measurement": "Pain score on VAS, 120 minutes", "setting": "[1]; 120 minutes post dosing, 100-mm VAS, 6 mg/kg i.v., mean (SD)", "result": "33 ± 21"}, {"measurement": "Pain intensity on VRS compared with placebo", "setting": "[1]; Verbal Rating Scale 0-10, 6 mg/kg i.v., p=0.02", "result": "significantly lower"}, {"measurement": "Duration of antinociceptive effect on headache intensity and of reduction of muscle hardness and tenderness", "setting": "[1]; after start of infusion, 6 mg/kg i.v.", "result": "at least 120 minutes"}, {"measurement": "Pain score on VAS, baseline", "setting": "[1]; before treatment, 100-mm VAS, 6 mg/kg i.v. over 15 minutes, mean (SD), 16 patients", "result": "49 ± 16"}, {"measurement": "Subjective symptoms reported (number of patients)", "setting": "[2]; 6 mg/kg i.v.", "result": "tiredness (2), dryness of the mouth (3), drowsiness (1), exhaustion (1), nausea (1) and a feeling of tingling in arm (1)"}, {"measurement": "MAP and pulse rate over time compared with placebo", "setting": "[2]; 6 mg/kg i.v., p=0.0001 and p=0.0001", "result": "changed significantly over time"}, {"measurement": "Time at which the difference in MAP and pulse rate to placebo disappeared", "setting": "[2]; after start of infusion", "result": 60, "unit": "min"}, {"measurement": "Maximum decrease in pulse rate", "setting": "[2]; occurred 10 minutes post dosing, 6 mg/kg i.v., hydrochloride, 6 mg/kg", "result": "16±2% and 16%"}, {"measurement": "Maximum increase in mean arterial blood pressure (MAP)", "setting": "[2]; occurred 15 minutes post dosing, 6 mg/kg i.v., hydrochloride, 6 mg/kg", "result": "12±2% and 12%"}, {"measurement": "Patients who reported subjective symptoms in relation to the infusion", "setting": "[2]; of 16 patients, 6 mg/kg i.v.", "result": "Seven"}, {"measurement": "Patients who used simple analgesics as rescue medication", "setting": "[2]; of 16 patients, 7 on placebo", "result": "Three"}]}]}
